{"source": "patent US20040038888A1", "about": "(priority 2002, published 2004)", "key": {"primary adult NSC": {"system": "primary adult NSC", "assay": "Self renewal and multipotency assay", "format": "cell-based, mouse", "conditions": "PACAP 100 nM", "description": "Anterior lateral wall of the lateral ventricle was dissociated as described in Example 2 (Method A), and the cells resuspended in Neurosphere medium without EGF. The cell suspension was divided into a 24-well plate in triplicate and PACAP added to a final concentration of 100 nM. After 7 days, the neurospheres were split into single cells, as described in Example 1 (Method A), but in the absence of EGF. The cells were replated as single cells, PACAP added to 100 nM and incubated a further 7 days. The cells were passaged one further time, and plated as single cells in Neurosphere medium supplemented with 1% Fetal Calf Serum (Gibco) and 100 nM PACAP (Bachem) onto poly-D-lysine plates. The cells were incubated over-night in which time they adhered to the poly-D-lysine plates and the medium was changed to Neurosphere medium supplemented with 100 nM PACAP38, but absent of Fetal Calf Serum. The cells were cultured for a further 3 days, after which they were washed twice in PBS (Gibco) and fixed for 15 min at room temperature with 4% Formaldehyde (Sigma) and permeabilised for 20 minutes at room temperature in 0,1% Triton X-100 (Sigma) in PBS. After fixation and permeabilisation the cells were labelled with mouse monoclonal anti β-III Tubulin (1:1000 Promega), rabbit anti GFAP (1:500 Sigma), and mouse anti CNPase (1:500 Sigma). Primary antibodies were visualized with anti mouse Texas-Red and anti rabbit FITC (1:500 Vector Laboratories). All antibodies were diluted in PBS with 0,1% Triton X-l00."}, "CREB phosphorylation": {"system": "CREB phosphorylation", "assay": "Western blot of phosphorylated CREB, differentiating adult mouse NSC, adherent", "format": "cell-based", "conditions": "10 nM PACAP", "description": "Adult mouse NSC and aHNSC were prepared and cultured as stated in Example 5 (Method A & B) and Example 2 (Method A), respectively. Cultures were exposed to 10 nM PACAP for the times indicated. After treatment, the cells were lysed in lysis buffer, as shown in Patrone et al. (Patrone, Andersson et al. 1999). DNA content was detemined by the use of a Pico Green-kit for ds DNA quantitation of cell extracts. Total protein measurements were performed with Nano Orange-kit. Equal amounts of protein were run on a gradient gel 4-12% Bis-Tris gel (NuPage/Mops buffer) and transferred to a nitrocellulose membrane. Western blot was performed and phosphorylated CREB was labelled using a rabbit anti phospho-CREB (1:1000, Upstate biotechnology), a secondary anti rabbit HRP antibodies (1:10.000). Phosphorylated CREB protein bands (43 kD) were detected using the ECL-kit (Amersham)."}, "subventricular zone NSC": {"system": "subventricular zone NSC", "assay": "PACAP/BrdU infusion, BrdU labelling of the lateral ventricle wall", "format": "in vivo, mouse", "conditions": "600 nM pump concentration, 0.5 μl/hr into the lateral ventricle, 3.5 days, relative to vehicle", "description": "10 week old male mice (C57B1/2), maintained on a 12 hr light/dark cycle with food and water ad libidum, were infused in the right lateral ventricle with PACAP38 (Bachem), using a Alzet pump (1007D), for 3,5 days or 7 days at a daily dose of 31 ng/day (600 nM PACAP pump concentration infused at a rate of 0.5 μl/hr). Bromodeoxyuridine (BrdU) (50 mg/ml) was also included in the infusion vehicle (0.9% saline containing 1 mg/ml mouse serum albumin (Sigma)) to enable measurement of proliferation by quantitation of BrdU incorporation in the DNA. The group of infused with either PACAP/BrdU or vehicle/BrdU for 3,5 days and sacrificed at this time point. […]\nBrains were cut into 14-μm coronal sections using a cryostat-microtome. […] After 1 hour of washing, the BrdU-antibody complex was detected using 0.05% diaminobenzidine with 0.01% H2O2, and counterstained with Hematoxylin. […]\nFor all BrdU labelling experiments, three to six sections per animal were analysed. […] The number of BrdU-labelled cells per area of dentate granule cell layer was counted manually. […] BrdU-positive cells were counted along 2×250 micrometer strips of the lateral ventricle wall (see FIG. 18). Area measurements of both the dentate granule cell layer and the “counted” region of the lateral ventricle wall (including the ependymal cell layer and subventricular zone) were made from each slide used for the cell counts. […]"}}, "data": [{"substance": "pituitary adenylate cyclase-activating polypeptide [PACAP]", "values": [{"measurement": "multiply-passaged neurospheres compared to EGF-treated neurospheres", "setting": "primary adult NSC", "result": "no relevant differences"}, {"measurement": "self-renewal (secondary and tertiary neurospheres)", "setting": "primary adult NSC; absence of other mitogens", "result": "retained their ability to self-renew"}, {"measurement": "multipotentiality (β-III Tubulin, GFAP, CNPase immunoreactivity)", "setting": "primary adult NSC; spontaneous differentiation on poly-D-lysine", "result": "retaining the potential of generating all the cells of the CNS"}, {"measurement": "CREB phosphorylation", "setting": "CREB phosphorylation; 15 min exposure", "result": "upregulated"}, {"measurement": "CREB phosphorylation", "setting": "CREB phosphorylation; 240 min", "result": "slightly above basal levels"}, {"measurement": "proliferation in the subventricular zone of the lateral ventricle wall (BrdU-positive cells)", "setting": "subventricular zone NSC", "result": "significant increase in proliferation"}]}]}
